# Experimental data as given in US8613933B2, “Brachyury polypeptides and methods for use” (The United States of America, as represented by the …, priority 2007, dated 2013).
# Peptide text beside a SMILES is read from it.
# What was measured:
# HLA-A0201 molecules = biological target: T1, HLA-A0201 molecules (Homo sapiens, UniProt P04439, D140Y/D185E/D98H/E176V/E277Q/G131W/G231S/I119V/I121R/I166T/I218V/L300P/L318F/N151K/N90K/P208A/P217A/Q86G/Q94H/R138H/R169H/T345S); test: HLA-A2 binding assay: HLA-A02 surface expression on T2 cells by flow cytometry; details: 25 μM peptide, compared to positive and negative control peptides
# T1 construct: the T2 (HLA-A2+) transport-deletion mutant cell line; endogenous in cells; host or cells: T2 (HLA-A2+) TAP-deficient cells
# Description: Binding of Brachyury-specific peptides T-p1, T-p2, T-p3, and T-p4 (SEQ ID NOs: 1-4) to HLA-A0201 molecules was evaluated by flow cytometry analysis of HLA-A02 surface expression on T2 cells. T2 cells (1×10^6) in serum-free Iscove's modified Dulbecco's medium were incubated in the presence of various concentrations of each peptide, in 24-well culture plates at 37° C. with 5% CO2. After 18 hours in culture, T2 cells were harvested, washed with 1× phosphate buffered saline (PBS) (Invitrogen) and stained with 20 μl of a FITC-conjugated anti-HLA-A02-specific monoclonal antibody (MAb) (One Lambda, Inc., Canoga Park, Calif.). A FITC-conjugated IgG2a MAb (BD Biosciences, San Jose, Calif.) was used as an isotype control. […] Results were expressed as mean fluorescence intensity (MFI) collected on a log scale. […] Assuming first order kinetics, the log2 of MFI/MFI0 (MFI is the fluorescence at each time point and MFI0 the initial fluorescence at time 0) was plotted against time (minutes). The decay rate constant was calculated as the slope of the linear regression for each curve and the half-life of each peptide-MHC complex was calculated as […].
# In silico-predicted epitopes were then assessed for binding to the MHC molecules in a cell-based assay. […]
# CD8+ T cells = test: IFN-γ ELISA of peptide-induced CD8+ T cells stimulated with peptide-pulsed autologous DCs; assay type: cell-based, human; details: healthy donor, DCs pulsed with 25 μM peptide, three IVS, 24 hours stimulation
# Description: To generate Brachyury-specific cytotoxic T cells (CTLs), peptide-pulsed irradiated (30 Gy) DCs were used as antigen presenting cells (APCs) with autologous, non-adherent cells used as effector cells at an effector-to-APC ratio of 10:1. Cultures were maintained for three initial days in medium containing 10% human AB serum, and four additional days in the same medium supplemented with 20 U/ml of recombinant human IL-2. After a seven-day culture period, designated as an in vitro stimulation (IVS) cycle, cells were re-stimulated as described above.
# After three IVS cycles, CD8+ T cells that were negatively isolated by using a CD8+ isolation kit (Miltenyi Biotec, Auburn, Calif.) were stimulated for 24 hours in the presence of peptide-pulsed autologous DCs. Culture supernatants were analyzed for the presence of IFN-γ by using an enzyme linked immunosorbant assay (ELISA) kit (Biosource International Inc., Camarillo, Calif.). Results were expressed in pg/ml.
# Irradiated DCs pulsed with 25 μM of each peptide were used to stimulate autologous T cells from a healthy donor's PBMCs. […] Cytotoxic lysis of normal B lymphocytes was also analyzed since low expression of Brachyury was detectable in CD19+ cells isolated from various healthy donors.
# [1] = tested on: normal donor CD19+ B cells; assay type: cell-based, human
# Description: (§1) Target cells were labeled with 50 μCi of ^111Indium-labeled oxyquinoline (Amersham Health, Silver Spring, Md.) for 15 minutes at room temperature. Target cells in medium containing 10% human AB serum were plated at 3×10^3 cells per well, in 96-well rounded-bottom culture plates. Labeled C1R-A2 or T2 cells were incubated with peptides at the indicated concentrations for 60 minutes at 37° C. in 5% CO2 before the addition of effector cells. No peptide was added when carcinoma cells or CD19+ B cells were used as targets. CD8+ T cells negatively isolated from T-cell cultures were used as effector cells, at various effector-to-target (E:T) cell ratios. […] Supernatants were harvested and the ^111In released was measured by gamma counting. Spontaneous release was determined by incubating the target cells with medium alone, and complete lysis by incubating the target cells with 2.5% Triton X-100. All determinations were performed in triplicate, and standard deviations were calculated. Specific lysis was calculated as follows: specific lysis (%)=[(observed release-spontaneous release)/(complete release-spontaneous release)]×100. […] Cytotoxic lysis of normal B lymphocytes was also analyzed since low expression of Brachyury was detectable in CD19+ cells isolated from various healthy donors.
# T2 cells = assay type: cell-based, human
# Description: as §1
Compound,"Binding to HLA-A02 molecules (cell surface MHC stabilization, MFI) (HLA-A0201 molecules)",Induction of antigen-specific CTLs releasing IFN-γ upon stimulation with the specific peptide (CD8+ T cells),Cytotoxic lysis of normal B lymphocytes [1],Lowest peptide concentration showing cytotoxic responses of T-p2 CTLs (T2 cells) [nM]
AMYSFLLDFV (listed as Homo sapiens) [T-p4],highest binding to T2 cells,,,
RLIASWTPV (listed as Homo sapiens) [T-p3],highest binding to T2 cells,induced antigen-specific CTLs able to release IFN-γ,,
"CC(C)C[C@H](NC(=O)[C@@H](NC(=O)[C@H](CO)NC(=O)[C@@H](NC(=O)CNC(=O)[C@@H]1CCCN1C(=O)[C@H](CC(C)C)NC(=O)[C@H](CC(C)C)NC(=O)[C@@H](N)Cc1c[nH]c2ccccc12)[C@@H](C)O)[C@@H](C)O)C(=O)O [T-p2, WLLPGTSTL] (H-WLLPGTSTL-OH; N-terminus and C-terminus assumed)",,,No lysis was observed,1
